Results published in the NIST ThermoML archive (doi:10.1021/je100554g).
± gives the expanded uncertainty stated by the source.

Key:
[1] = 101.33 kPa, Liquid, Pulse-echo method
[2] = xn = mol fraction of the nth substance listed; settings: 101 kPa, Liquid, Pulse-echo method

[Cl-].[Li+] [lithium chloride]
[1]
Settings | speed of sound [m/s]
950 K | 1988 ± 21
976 K | 1973 ± 20
1003 K | 1945 ± 20
1030 K | 1924 ± 20
1062 K | 1894 ± 20
1082 K | 1879 ± 19
1110 K | 1858 ± 19
1148 K | 1825 ± 19
1181 K | 1791 ± 19

[Cl][Nd]([Cl])[Cl] [neodymium(III) chloride]
[1]
Settings | speed of sound [m/s]
1044 K | 1248 ± 14
1045 K | 1259 ± 14
1075 K | 1237 ± 13
1083 K | 1227 ± 13
1099 K | 1227 ± 13
1148 K | 1223 ± 13
1165 K | 1212 ± 13
1184 K | 1188 ± 13
1218 K | 1190 ± 13

[Cl][Nd]([Cl])[Cl] [neodymium(III) chloride] + [Cl-].[Cs+]
[2]
Settings | speed of sound [m/s]
913 K, x1 = 0.45 | 1110 ± 12
968 K, x1 = 0.45 | 1080 ± 12
998 K, x1 = 0.8 | 1205 ± 13
1008 K, x1 = 0.45 | 1053 ± 12
1043 K, x1 = 0.8 | 1172 ± 13
1061 K, x1 = 0.45 | 1026 ± 11
1083 K, x1 = 0.8 | 1148 ± 13
1112 K, x1 = 0.45 | 998 ± 11
1123 K, x1 = 0.8 | 1129 ± 12
1138 K, x1 = 0.45 | 980 ± 11
1143 K, x1 = 0.8 | 1115 ± 12
1147 K, x1 = 0.25 | 969 ± 11
1169 K, x1 = 0.25 | 961 ± 11
1188 K, x1 = 0.25 | 953 ± 11
1207 K, x1 = 0.25 | 949 ± 11
1226 K, x1 = 0.25 | 941 ± 11
1245 K, x1 = 0.25 | 934 ± 11

[Cl][Nd]([Cl])[Cl] [neodymium(III) chloride] + [Cl-].[K+]
[2]
Settings | speed of sound [m/s]
1007 K, x1 = 0.75 | 1275 ± 14
1037 K, x1 = 0.75 | 1259 ± 14
1053 K, x1 = 0.37 | 1283 ± 14
1058 K, x1 = 0.25 | 1370 ± 15
1063 K, x1 = 0.5 | 1259 ± 14
1067 K, x1 = 0.75 | 1240 ± 13
1076 K, x1 = 0.25 | 1355 ± 14
1080 K, x1 = 0.37 | 1260 ± 14
1088 K, x1 = 0.5 | 1240 ± 13
1096 K, x1 = 0.25 | 1340 ± 14
1110 K, x1 = 0.37 | 1250 ± 13
1110 K, x1 = 0.75 | 1225 ± 13
1118 K, x1 = 0.25 | 1315 ± 14
1124 K, x1 = 0.5 | 1230 ± 13
1128 K, x1 = 0.37 | 1241 ± 13
1139 K, x1 = 0.75 | 1210 ± 13
1145 K, x1 = 0.37 | 1223 ± 13
1146 K, x1 = 0.25 | 1300 ± 14
1150 K, x1 = 0.5 | 1214 ± 13
1163 K, x1 = 0.75 | 1197 ± 13
1173 K, x1 = 0.37 | 1212 ± 13
1176 K, x1 = 0.25 | 1256 ± 14
1178 K, x1 = 0.37 | 1200 ± 13
1185 K, x1 = 0.5 | 1190 ± 13
1186 K, x1 = 0.25 | 1260 ± 14
1203 K, x1 = 0.5 | 1186 ± 13
1213 K, x1 = 0.25 | 1234 ± 13

[Cl][Nd]([Cl])[Cl] [neodymium(III) chloride] + [Cl-].[Li+]
[2], x1 = 0.5
Settings | speed of sound [m/s]
995 K | 1395 ± 15
1033 K | 1374 ± 15
1108 K | 1350 ± 14
1133 K | 1331 ± 14
1167 K | 1326 ± 14

[Cl][Nd]([Cl])[Cl] [neodymium(III) chloride] + [Cl-].[Na+]
[2]
Settings | speed of sound [m/s]
1009 K, x1 = 0.365 | 1450 ± 15
1048 K, x1 = 0.365 | 1418 ± 15
1053 K, x1 = 0.2 | 1520 ± 16
1063 K, x1 = 0.75 | 1290 ± 14
1073 K, x1 = 0.2 | 1502 ± 16
1073 K, x1 = 0.75 | 1285 ± 14
1074 K, x1 = 0.365 | 1389 ± 15
1090 K, x1 = 0.44 | 1350 ± 14
1100 K, x1 = 0.365 | 1368 ± 15
1103 K, x1 = 0.2 | 1465 ± 16
1103 K, x1 = 0.44 | 1340 ± 14
1103 K, x1 = 0.75 | 1270 ± 14
1115 K, x1 = 0.44 | 1325 ± 14
1123 K, x1 = 0.44 | 1330 ± 14
1127 K, x1 = 0.2 | 1476 ± 16
1128 K, x1 = 0.365 | 1354 ± 14
1133 K, x1 = 0.44 | 1325 ± 14
1133 K, x1 = 0.75 | 1256 ± 14
1143 K, x1 = 0.2 | 1447 ± 15
1143 K, x1 = 0.44 | 1322 ± 14
1150 K, x1 = 0.44 | 1307 ± 14
1154 K, x1 = 0.75 | 1250 ± 13
1155 K, x1 = 0.365 | 1357 ± 14
1173 K, x1 = 0.2 | 1420 ± 15
1175 K, x1 = 0.365 | 1340 ± 14
1176 K, x1 = 0.75 | 1240 ± 13
